According to patent US10398651B2, “Carrier-free nanoparticles” (priority 2016, dated 2019):

Key:
HT-29 colon cancer cells = details: cited from earlier work
[1] = test system: HeLa cervical cancer cells; details: cited from earlier work
[2] = test system: K562 chronic myelogenous leukemia cells; details: cited from earlier work
[3] = test system: SKOV-3 human ovarian cancer cells; experiment: IC50 determination, MTT assay, SKOV-3 cells; format: cell-based; details: SK-OV-3, SKOV3, 24 h treatment + 48 h post-treatment incubation
Description: (§1) Cytotoxicity of Cim-F-alb was tested with B16F10 cells and SKOV-3 human ovarian cancer cells (ATCC, Manassas, Va., USA) over a range of PTX concentrations. SKOV-3 cells were grown in RPMI-1640 medium containing 10% FBS and penicillin (100 IU/mL) and streptomycin (100 μg/mL). Both cells were treated with Cim-F-alb for 24 h, followed by post-treatment incubation in NC-free medium for 12-48 h. Free PTX and Abraxane were tested in the same manner for comparison. Cim-F-alb and Abraxane were directly reconstituted in PBS and serially diluted by a factor of 10. Free PTX solution was prepared as PTX stock solution in 50% DMSO at a concentration of 1 mg/mL and diluted in PBS. The maximum possible concentration of DMSO in the medium was 5% v/v. SKOV-3 cells and B16F10 cells grown in RPMI-1640 were tested with the MTT assay, and B16F10 cells grown in DMEM were tested with PI staining and flow cytometry. IC50 was calculated with GraphPad Prism 6 (La Jolla, Calif., USA).

B16F10 cells [4] = experiment: IC50 determination, PI staining and flow cytometry, B16F10 cells; format: cell-based; details: Mus musculus, B16-F10, 24 h treatment, PI staining + flow cytometry
Description: B16F10 cells grown in DMEM medium was tested with propidium iodide (PI) staining due to the production of melanin [32], which interferes with colorimetric assay. B16F10 cells were seeded in a 6 well plate at a density of 100,000 cells per well. After overnight incubation, the medium was replaced with fresh medium, to which 100 μL of PNC-alb, Cim-C-alb, or Cim-F-alb in PBS was added to provide the final concentration eq. to 30 μg/mL PTX. After incubation with NC for 3 h, cells were washed with PBS two times to remove NC, followed by additional incubation for 21 h in NC-free medium. Then, B16F10 cells were trypsinized and stained with PI (1 μg/mL) for 15 min in dark at room temperature. The cells were centrifuged at 300 g for 5 minutes to remove extra PI dye and reconstituted in PBS for flow cytometry (Accuri C6, BD Biosciences, San Jose, Calif.). At least 15,000 gated events were acquired, and FL-2 channel was monitored to determine the population of PI-stained cells.
Cytotoxicity of Cim-F-alb was tested with B16F10 cells and SKOV-3 human ovarian cancer cells (ATCC, Manassas, Va., USA) over a range of PTX concentrations. SKOV-3 cells were grown in RPMI-1640 medium containing 10% FBS and penicillin (100 IU/mL) and streptomycin (100 μg/mL). […] IC50 was calculated with GraphPad Prism 6 (La Jolla, Calif., USA).

B16F10 cells [5] = experiment: IC50 determination, MTT assay, B16F10 cells; format: cell-based; details: Mus musculus
Description: Cytotoxicity of NC was tested with B16F10 cells. B16F10 cells were grown in RPMI-1640 or DMEM medium supplemented with 10% FBS, penicillin (100 IU/mL) and streptomycin (100 μg/mL). B16F10 cells grown in RPMI-1640 were seeded in a 96 well plate at a density of 10,000 cells per well. After overnight incubation, the culture medium was replaced with a fresh cell culture medium, to which PNC-alb, Cim-C-alb, or Cim-F-alb were added to provide the final concentration eq. to 30 μg/mL PTX. After 3 h incubation, cells were washed with PBS twice to remove NC, followed by additional incubation for 21 h in NC-free medium. The cell viability was determined by the MTT (3-(4,5-dimethylthiazol-2-yl)-2,5-diphenyltetrazolium bromide) assay. Cells were treated with 75 μg of MTT and incubated for 3.5 h. The formazan crystals were dissolved in stop/solubilization solution (50% DMF, 20% SDS, pH 5) and quantified with a SpectraMax M3 microplate reader (Molecular Devices, CA, USA) at the wavelength of 562 nm.
as §1

[6] = As-received PTX dissolved in FBS-containing media after 6 h; format: physicochemical; details: 6 h at 37° C.
Description: FIG. 23. […] One milligram of PTX was added to 1 mL of each medium and incubated for 6 h with agitation. A supernatant was separated from the undissolved PTX by centrifugation at 135,700 rcf for 10 min, extracted with 3 mL of ethyl acetate, which was evaporated and reconstituted in 50% ACN for HPLC analysis. […] The FBS suspension was sampled at 6 h to quantify dissolved PTX by that time. A supernatant was separated from the sample by 10 min centrifugation at 135,700 rcf and analyzed in the same way. The incubation time was limited to 6 h due to the instability of PTX in serum. Since the extraction method cannot differentiate protein-bound PTX from free PTX, the measured values represent the sum of serum protein-bound and free PTX. • [1] G. Bajaj, M. R. Kim, S. I. Mohammed, Y. Yeo, Hyaluronic acid-based hydrogel for regional delivery of paclitaxel to intraperitoneal tumors, J. Control. Release 158 (2012) 386-392. • [2] I. Ringel, S. B. Horwitz, Taxol is converted to 7-epitaxol, a biologically active isomer, in cell culture medium, J. Pharmacol. Exp. Ther. 242 (1987) 692-698.

| IC50 [3] [nM] | IC50 (B16F10 cells [4]) [nM] | IC50 (B16F10 cells [5]; B16-F10, 24 h, B16F10, 24 h treatment + 24 h post-treatment incubation) [nM] | IC50 (B16F10 cells [5]; B16-F10, B16F10, 24 h treatment + 12 h post-treatment incubation) [nM] | IC50 (B16F10 cells [5]; B16-F10, B16F10, 24 h treatment + 48 h post-treatment incubation) [nM] | PTX dissolved in 10% FBS [6] [µg/mL] | PTX dissolved in 50% FBS [6] [µg/mL] | PTX dissolved in undiluted FBS [6] [µg/mL] | Compound | cytotoxicity (HT-29 colon cancer cells) | cytotoxicity [1] | cytotoxicity [2] |
| --- | --- | --- | --- | --- | --- | --- | --- | --- | --- | --- | --- |
|  |  |  |  |  |  |  |  | CCCCCCCCCCCCCCCC[N+](C)(C)C.[Br-] [CTAB, hexadecyltrimethylammonium bromide] | cytotoxic | cytotoxic | cytotoxic |
| 34.2 | 423 | 213 | 91.3 | 765 | 9.6 ± 2.6 | 47.5 ± 11.4 | 71.9 ± 8.2 | CC(=O)O[C@H]1C(=O)[C@@]2(C)[C@H]([C@H](OC(=O)c3ccccc3)[C@]3(O)C[C@H](OC(=O)[C@H](O)[C@@H](NC(=O)c4ccccc4)c4ccccc4)C(C)=C1C3(C)C)[C@]1(OC(C)=O)CO[C@@H]1C[C@@H]2O [Free PTX, paclitaxel] |  |  |  |
